According to paper PMC10687288, “Chalcones: The flavonoid derivatives synthesis, characterization, their antioxidant and in vitro/in vivo antidiabetic potentials” (Heliyon, 2023):

biological target: α-glucosidase; assay: p-nitrophenyl-α-D-glucopyranoside hydrolysis assay, absorbance […] nm; assay type: biochemical

SMILES	Glucosidase IC50 [µg/mL]
O=C(/C=C/c1ccccc1Cl)c1ccc(Br)cc1 [JA1, (E)-1-(4-bromophenyl)-3-(2-chlorophenyl) prop-2-ene-1one]	85.11 ± 1.29
O=C(/C=C/c1cccc(Cl)c1)c1ccc(Br)cc1 [JA2, (E)-1-(4-bromophenyl)-3-(3-chlorophenyl) prop-2-ene-1one]	97.24 ± 1.48
O=C(/C=C/c1ccc(Cl)cc1)c1ccc(Br)cc1 [JA3, (E)-1-(4-bromophenyl)-3-(4-chlorophenyl) prop-2-ene-1one]	63.04 ± 1.17
